According to publication PMC2045123 (Analytical and Bioanalytical Chemistry, 2007):
Entries after “also recorded” stand apart in the source; their conditions may differ. Where two headings read alike, the source gives them in different places.

What was measured:
hAR = target: T1, hAR (Homo sapiens, UniProt P10275); experiment: lacZ-based; assay type: cell-based
T1 sequence (P10275 1-920): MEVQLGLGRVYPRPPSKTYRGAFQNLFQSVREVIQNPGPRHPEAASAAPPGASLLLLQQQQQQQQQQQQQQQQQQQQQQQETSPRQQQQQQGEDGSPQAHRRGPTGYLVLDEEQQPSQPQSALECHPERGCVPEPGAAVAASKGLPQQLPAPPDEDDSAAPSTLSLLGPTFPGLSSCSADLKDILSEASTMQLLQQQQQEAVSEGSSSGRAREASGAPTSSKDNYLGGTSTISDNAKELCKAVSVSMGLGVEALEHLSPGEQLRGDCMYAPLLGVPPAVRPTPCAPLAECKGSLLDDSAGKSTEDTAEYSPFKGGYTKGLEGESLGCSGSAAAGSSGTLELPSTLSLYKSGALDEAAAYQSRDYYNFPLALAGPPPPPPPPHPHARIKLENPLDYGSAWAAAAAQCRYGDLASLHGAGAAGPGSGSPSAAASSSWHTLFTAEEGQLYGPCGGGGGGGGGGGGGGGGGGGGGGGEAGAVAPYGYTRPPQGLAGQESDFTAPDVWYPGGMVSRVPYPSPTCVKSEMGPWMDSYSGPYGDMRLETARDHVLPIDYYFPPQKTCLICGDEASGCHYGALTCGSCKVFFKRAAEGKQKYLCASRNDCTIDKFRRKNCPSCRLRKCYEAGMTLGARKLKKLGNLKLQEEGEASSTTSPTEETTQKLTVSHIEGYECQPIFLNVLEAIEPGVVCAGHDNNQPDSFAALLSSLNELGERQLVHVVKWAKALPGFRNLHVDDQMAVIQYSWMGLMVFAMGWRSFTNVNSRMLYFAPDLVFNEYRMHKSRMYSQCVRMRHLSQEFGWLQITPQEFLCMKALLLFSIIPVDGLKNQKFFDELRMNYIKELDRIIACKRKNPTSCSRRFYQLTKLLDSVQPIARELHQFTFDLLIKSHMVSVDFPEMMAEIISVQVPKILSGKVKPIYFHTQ

AR = details: cited from earlier work
human androgen receptor [1] = target: T2, human androgen receptor (Homo sapiens, UniProt P10275); assay type: cell-based; details: coexposure with 50 nM 5α-dihydrotestosterone; potency compared with flutamide
T2 sequence (P10275 1-920): T1 sequence (P10275 1-920)

human androgen receptor [2] = target: T2, human androgen receptor; experiment: new yeast androgen bioassay expressing yEGFP in response to androgens; assay type: cell-based
[3] = β-galactosidase bioassay, relative to 17β-testosterone, NR no response

| Compound | androgenic activity in MCRG systems (positive systems out of all) (AR) | RAP (hAR; [3]) | also measured |
| --- | --- | --- | --- |
| C[C@]1(O)CC[C@H]2[C@@H]3CCC4=CC(=O)CCC4=C3C=C[C@@]21C [Methyltrienolone] |  |  | RAP (hAR): 3.1 |
| CC(=O)[C@H]1CC[C@H]2[C@@H]3CCC4=CC(=O)CC[C@]4(C)[C@H]3CC[C@]12C [Progesterone] | seven out of nine |  |  |
| C[C@@H]1C[C@H]2[C@@H]3CCC4=CC(=O)C=C[C@]4(C)[C@@]3(F)[C@@H](O)C[C@]2(C)[C@@]1(O)C(=O)CO [Dexamethasone] | three out of four |  |  |
| C[C@]12CC[C@H]3[C@@H](CCC4=CC(=O)C=C[C@@]43C)[C@@H]1CC[C@@H]2O [17β-Boldenone] |  | 0.2 |  |
| C[C@]12C=CC3=C4CCC(=O)C=C4CC[C@H]3[C@@H]1CC[C@@H]2O [17β-Trenbolone] |  | 0.9 | EC50 (hAR): 0.013 µM |
| C[C@]12CC[C@@H]3c4ccc(O)cc4CC[C@H]3[C@@H]1CC[C@@H]2O [17β-Estradiol] | ten out of 11 |  |  |
| Brc1ccc(Oc2cc(Br)cc(Br)c2)cc1 [BDE-39] |  |  | antiandrogenic activity (in words) (human androgen receptor [1]): clearly less antiandrogenic; agonistic response (in words) (human androgen receptor [2]): None of these four compounds were able to show an agonistic response |
| CC[C@]1(O)CC[C@H]2[C@@H]3CCC4=CC(=O)CCC4=C3C=C[C@@]21CC [Tetrahydrogestrinone] |  | 1.0 |  |
| C[C@]12CC[C@@H]3c4ccc(O)cc4CC[C@H]3[C@@H]1CCC2=O [Estrone] |  |  | agonistic response (in words) (human androgen receptor [2]): no agonistic response; also recorded: negative result |
